Source: US4859668A, “Method of inhibiting the growth of melanin-pigmented cells” (North Carolina State University, priority 1988, dated 1989)
Like-named read-outs stand apart in the source and are kept apart here.

Columns and labels:
[1] = system: melanin-pigmented cells; assay: In vitro selective inhibition of melanin-pigmented cells, effective dosage/time regimens; assay type: cell-based
[2] = system: L929 fibroblast; assay: Effects of Various Cyclic Amines on Growth of Pigmented Melanoma Cells (Table III), L929; assay type: cell-based, mouse; settings: for inhibition at 13800 µM: Mus musculus, read-out: Percent Inhibition, L929 fibroblast
Experimental: (§1) Pigmented S91 melanoma and unpigmented L929 fibroblast cells were treated with various cyclic amines at a concentration of 13.8 mM as described in Example 1 above.

[3] = system: S91 melanoma; assay: Effects of Various Cyclic Amines on Growth of Pigmented Melanoma Cells (Table III), S91; assay type: cell-based, mouse; settings: for inhibition at 13800 µM: Mus musculus, read-out: Percent Inhibition, S91 melanoma
Experimental: as §1

[4] = in vitro; settings: mouse, l929 cells
Experimental: (§3) These cells were maintained as monolayers in Corning plastic flasks in Minimum Essential Medium (Eagle) with Earle's salts supplemented with 10% fetal bovine serum, 100 units of penicillin, 100 mg of streptomycin and 5 mg of amphotericin B per ml in 5% CO2 humidified air at 37° C.
(§4) Prior to dose-response studies, single cell suspensions were prepared in medium following trypsinization and inoculated into Falcon Multiwell plates (2 cm^2 wells) at 3.5×10^4 cells per 0.5 ml of medium. Cultures were maintained for 24 hours before exposure.
(§5) This stock solution was used to prepare test concentrations of the drug in culture medium. […] Cells were exposed to each of these concentrations by adding 0.5 ml of each of the solutions to triplicate test wells and incubating the cells under exposure at 37° C. for 1 hour. […] Cells were harvested after 48 hours and counted with a hemacytometer.

[5] = system: HFH-LP; assay: Effect of Cyclic Amines on Survival of Pigmented Melanoma (Table II), HFH-LP; settings: Mus musculus, 24 h, read-out: percentage dead, HFH-LP
Experimental: as §3, §4, §5

[6] = system: HFH-LP; assay: Effect of Cyclic Amines on Growth Rate of Pigmented Melanoma (Table I), HFH-LP; assay type: cell-based, mouse
Experimental: (§6) These cell cultures include low passage HFH (HFH-LP), a pigmented line derived from the B-16 mouse melanoma, and NP, an amelanotic clone of HFH-LP. […] These cells were maintained as monolayers in Corning plastic flasks in Minimum Essential Medium (Eagle) with Earle's salts supplemented with 10% fetal bovine serum, 100 units of penicillin, 100 mg of streptomycin and 5 mg of amphotericin B per ml in 5% CO2 humidified air at 37° C.
as §4, §5

[7] = system: S91 (Cloudman S91 mouse melanoma); assay: Effect of Cyclic Amines on Survival of Pigmented Melanoma (Table II), S91; settings: 24 h, read-out: percentage dead, S91
Experimental: as §3, §4, §5

[8] = system: NP; assay: cells; settings: Mus musculus, 1.5 h, read-out: Effect on Growth Rate (inhibition), NP
Experimental: as §6, §4, §5

[9] = system: HFH-LP and HFH-HP; assay: Pigmentation and growth of cells exposed to theophylline, HFH-LP and HFH-HP; assay type: cell-based, mouse; settings: theophylline exposure
Experimental: (§7) Single cell suspensions were prepared as described above. Twenty-four hours after seeding, the cells were exposed to either (a) culture medium alone, or (b) culture medium containing 0.5 mM theophylline.

[10] = system: HFH-HP; assay: cells; settings: Mus musculus, read-out: Growth inhibition, Theo. Alone vs. control
Source text: (§8) These cell cultures include low passage HFH (HFH-LP), a pigmented line derived from the B-16 mouse melanoma, and NP, an amelanotic clone of HFH-LP. High passage HFH (HFH-HP) was derived from HFH-LP after 30 passages in vitro. […] These cell cultures further include Cloudman S91 mouse melanoma, RPMI 1846 (a Syrian hamster melanoma), baby hamster kidney (BHK) and Chinese hamster ovary (CHO). These cells were maintained as monolayers in Corning plastic flasks in Minimum Essential Medium (Eagle) with Earle's salts supplemented with 10% fetal bovine serum, 100 units of penicillin, 100 mg of streptomycin and 5 mg of amphotericin B per ml in 5% CO2 humidified air at 37° C.
as §7
(§9) The values given are the mean from 6 replicates.

[11] = system: HFH-LP; assay: cells; settings: Mus musculus, read-out: Growth inhibition, Theo. Alone vs. control
Source text: as §8, §7, §9

[12] = system: RPMI-1641; assay: cells; settings: read-out: Growth inhibition, Theo. Alone vs. control
Source text: as §8, §7, §9

[13] = system: Unpigmented NP, CHO and mouse fibroblast L929 cells; assay: Enhancement of toxicity by theophylline pretreatment, unpigmented cells; assay type: cell-based, mouse; Chinese hamster
Experimental: Twenty-four hours after seeding, the cells were exposed to either (a) culture medium alone, or (b) culture medium containing 0.5 mM theophylline.

[14] = system: NP; assay: cells; settings: Mus musculus, read-out: Growth inhibition, Theo. Alone vs. control
Source text: as §8, §7, §9

[15] = system: RPMI 1946 cells; assay: Pigmentation and growth of cells exposed to theophylline, RPMI 1946; assay type: cell-based, Syrian hamster; settings: theophylline exposure
Experimental: as §7

[16] = system: BHK; assay: cells; settings: Mesocricetus auratus, read-out: Growth inhibition, Theo. Alone vs. control
Source text: as §8, §7, §9

[17] = system: RPMI-1641; settings: lightly pigmented RPMI 1641
Source text: as §8, §7, §9

[18] = system: L929; assay: cells; settings: Mus musculus, L929, read-out: Growth inhibition, Theo. Alone vs. control
[19] = system: L929 fibroblast; assay: Effect of High Dose Exposure to Piperidino 1,2-Propanediol (Table V), L929; assay type: cell-based, mouse; settings: 30 min. exposure
Source text: (§2) Pigmented S91 melanoma and nonpigmented L929 fibroblast cells were exposed to high doses of piperidino 1,2-propanediol.

[20] = system: S91 melanoma; assay: Effect of High Dose Exposure to Piperidino 1,2-Propanediol (Table V), S91; assay type: cell-based, mouse; settings: 30 min. exposure
Source text: as §2

[21] = L929, 1 Hour Exposure to 13.8 mM
[22] = S91, 1 Hour Exposure to 13.8 mM

CN1CCN(C)CC1 [1,4-dimethylpiperazine]
in vitro effectiveness of dosage/time regimen ([1]; 13.8 mM for 1 hour): effective in vitro for inhibiting the growth of melanin-pigmented cells with little or no effect upon unpigmented cells
inhibition at 13800 µM [2, 21]: 0%
inhibition at 13800 µM [3, 22]: 99%

CN1CCNCC1 [1-methylpiperazine]
in vitro effectiveness of dosage/time regimen ([1]; 13.8 mM for 1 hour): effective in vitro for inhibiting the growth of melanin-pigmented cells with little or no effect upon unpigmented cells
inhibition at 13800 µM [2, 21]: 0%
inhibition at 13800 µM [3, 22]: 99%

CN1CCCCC1 [1-methylpiperidine]
in vitro effectiveness of dosage/time regimen ([1]; 13.8 mM for 1 hour): effective in vitro for inhibiting the growth of melanin-pigmented cells with little or no effect upon unpigmented cells
inhibition at 13800 µM [2, 21]: 4%
inhibition at 13800 µM [3, 22]: 99%

CC1CNC(C)CN1 (stereo not shown) [2,5-dimethylpiperazine]
in vitro effectiveness of dosage/time regimen ([1]; 13.8 mM for 1 hour): effective in vitro for inhibiting the growth of melanin-pigmented cells with little or no effect upon unpigmented cells
inhibition at 13800 µM [2, 21]: 0%
inhibition at 13800 µM [3, 22]: 97%

c1cc(N2CCCCC2)ccn1 [4-piperidinopyridine]
in vitro effectiveness of dosage/time regimen ([1]; 13.8 mM for 1 hour): effective in vitro for inhibiting the growth of melanin-pigmented cells with little or no effect upon unpigmented cells
in vitro effectiveness of dosage/time regimen ([1]; 35 mM for 30 minutes): effective in vitro for inhibiting the growth of melanin-pigmented cells with little or no effect upon unpigmented cells
inhibition at 13800 µM [2, 21]: 14%
inhibition at 13800 µM [3, 22]: 99%

CCN1CCOCC1 [N--ethylmorpholine, reference compound]
inhibition at 13800 µM [2, 21]: 0%
inhibition at 13800 µM [3, 22]: 0%

CN1CCOCC1 [N--methylmorpholine, reference compound]
inhibition at 13800 µM [2, 21]: 0%
inhibition at 13800 µM [3, 22]: 0%

c1ccncc1 [Pyridine, reference compound]
inhibition at 13800 µM ([2]; L929, 1 h): 0%
inhibition at 13800 µM ([3]; S91, 1 h): 0%

C1CNCCN1 [piperazine]
cytotoxicity at 24 h, 13800 µM [4]: -101%
cytotoxicity at 13800 µM [5]: -44 ± 4%
in vitro effectiveness of dosage/time regimen ([1]; 13.8 mM for 1 hour): effective in vitro for inhibiting the growth of melanin-pigmented cells with little or no effect upon unpigmented cells
inhibition at 13800 µM ([6]; Mus musculus, 13.8 mM for 1.5 hr, mean ± S.E., 6 replicates, read-out: Effect on Growth Rate (inhibition), HFH-LP): 24 ± 9%
inhibition of pigmented cell line HFH-LP (in words) ([6]; not as effective as morpholine at the dosage tested): selectively inhibitory to the pigmented cell line HFH-LP, although not as effective as morpholine
cytotoxicity at 13800 µM [7]: 46 ± 5%
inhibition at 13800 µM [2, 21]: 0%
inhibition at 13800 µM [3, 22]: 70%
inhibition at 13800 µM [8]: 0%

Cn1c(=O)c2[nH]cnc2n(C)c1=O [theophylline, reference compound]
growth rate of the cells [9]: decreased
pigmentation of the treated cells [9]: visible increase in pigmentation
inhibition at 500 µM [10]: 40%
inhibition at 500 µM [11]: 35%
inhibition at 500 µM [12]: 35%
effect of theophylline pretreatment on unpigmented cells [13]: remained unaffected
inhibition at 500 µM [14]: 11%
growth rate [15]: similarly affected
pigmentation [15]: no visible change in pigmentation
inhibition at 500 µM [16]: 20%
sensitization to morpholine [17]: sensitized the lightly pigmented RPMI 1641 cell line to morpholine
inhibition at 500 µM [18]: -87%

piperidino 1,2-propanediol [piperidino1,2-propanediol]
% inhibition, L929 fibroblast ([19]; 13.8 mM): 0%
% inhibition, L929 fibroblast ([19]; 34.5 mM): 7%
% inhibition, L929 fibroblast ([19]; 69 mM): 10%
% inhibition, L929 fibroblast ([19]; 138 mM): 19%
in vitro effectiveness of dosage/time regimen ([1]; 13.8 mM for 1 hour): effective in vitro for inhibiting the growth of melanin-pigmented cells with little or no effect upon unpigmented cells
in vitro effectiveness of dosage/time regimen ([1]; 35 mM for 30 minutes): effective in vitro for inhibiting the growth of melanin-pigmented cells with little or no effect upon unpigmented cells
% inhibition, S91 melanoma ([20]; 13.8 mM): 16%
% inhibition, S91 melanoma ([20]; 34.5 mM): 44%
% inhibition, S91 melanoma ([20]; 69 mM): 81%
% inhibition, S91 melanoma ([20]; 138 mM): 91%
Percent Inhibition, L929 fibroblast ([2]; 1 Hour Exposure to 13.8 mM): 1%
Percent Inhibition, S91 melanoma ([3]; 1 Hour Exposure to 13.8 mM): 46%
